System: SEM cells
Assay: cell viability relative to DMSO control; higher = less cytotoxic
Conditions: 48 h
In short: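 Library compounds in DMSO were pin-dosed in an 11-point threefold series (47 μM to 0.79 nM) onto leukemia cells in 1536-well plates (5 μl). Plates held 500 cells/well of NOMO1 or SEM or 1000 cells/well of P12-Ichikawa, each adapted for at least four passages in each medium. Luminescence was read with CellTiter-Glo One after 48 h at 37°C. Viability means the per-plate percentage relative to DMSO wells, using cell-free wells as background.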

[1] = HPLM + 10% dialyzed FBS, 0.000781 µM
[2] = HPLM + 10% dialyzed FBS, 0.00234 µM
[3] = HPLM + 10% dialyzed FBS, 0.00702 µM
[4] = HPLM + 10% dialyzed FBS, 0.0211 µM
[5] = HPLM + 10% dialyzed FBS, 0.0632 µM
[6] = HPLM + 10% dialyzed FBS, 0.19 µM
[7] = HPLM + 10% dialyzed FBS, 0.569 µM
[8] = HPLM + 10% dialyzed FBS, 1.71 µM
[9] = HPLM + 10% dialyzed FBS, 5.12 µM
[10] = HPLM + 10% dialyzed FBS, 15.4 µM
[11] = HPLM + 10% dialyzed FBS, 46.1 µM
[12] = RPMI 5 mM glucose + 10% FBS, 0.000781 µM
[13] = RPMI 5 mM glucose + 10% FBS, 0.00234 µM
[14] = RPMI 5 mM glucose + 10% FBS, 0.00702 µM
[15] = RPMI 5 mM glucose + 10% FBS, 0.0211 µM
[16] = RPMI 5 mM glucose + 10% FBS, 0.0632 µM
[17] = RPMI 5 mM glucose + 10% FBS, 0.19 µM
[18] = RPMI 5 mM glucose + 10% FBS, 0.569 µM
[19] = RPMI 5 mM glucose + 10% FBS, 1.71 µM
[20] = RPMI 5 mM glucose + 10% FBS, 5.12 µM
[21] = RPMI 5 mM glucose + 10% FBS, 15.4 µM
[22] = RPMI 5 mM glucose + 10% FBS, 46.1 µM
[23] = RPMI 5 mM glucose + 10% dialyzed FBS, 0.000781 µM
[24] = RPMI 5 mM glucose + 10% dialyzed FBS, 0.00234 µM
[25] = RPMI 5 mM glucose + 10% dialyzed FBS, 0.00702 µM
[26] = RPMI 5 mM glucose + 10% dialyzed FBS, 0.0211 µM
[27] = RPMI 5 mM glucose + 10% dialyzed FBS, 0.0632 µM
[28] = RPMI 5 mM glucose + 10% dialyzed FBS, 0.19 µM
[29] = RPMI 5 mM glucose + 10% dialyzed FBS, 0.569 µM
[30] = RPMI 5 mM glucose + 10% dialyzed FBS, 1.71 µM
[31] = RPMI 5 mM glucose + 10% dialyzed FBS, 5.12 µM
[32] = RPMI 5 mM glucose + 10% dialyzed FBS, 15.4 µM
[33] = RPMI 5 mM glucose + 10% dialyzed FBS, 46.1 µM

Compound | cell viability [1] [%] | cell viability [2] [%] | cell viability [3] [%] | cell viability [4] [%] | cell viability [5] [%] | cell viability [6] [%] | cell viability [7] [%] | cell viability [8] [%] | cell viability [9] [%] | cell viability [10] [%] | cell viability [11] [%] | cell viability [12] [%] | cell viability [13] [%] | cell viability [14] [%] | cell viability [15] [%] | cell viability [16] [%] | cell viability [17] [%] | cell viability [18] [%] | cell viability [19] [%] | cell viability [20] [%] | cell viability [21] [%] | cell viability [22] [%] | cell viability [23] [%] | cell viability [24] [%] | cell viability [25] [%] | cell viability [26] [%] | cell viability [27] [%] | cell viability [28] [%] | cell viability [29] [%] | cell viability [30] [%] | cell viability [31] [%] | cell viability [32] [%] | cell viability [33] [%]
CC1(CN2CCC(n3c(=O)[nH]c4ccccc43)CC2)OCc2ccccc2-n2cccc21 (stereo not drawn) | 102 | 109 | 111 | 100 | 103 | 100 | 107 | 105 | 106 | 68.1 | 76.9 | 88.6 | 90.5 | 89 | 111 | 106 | 95 | 103 | 100 | 94.8 | 79.3 | 66.8 | 106 | 81.4 | 97.6 | 105 | 113 | 94 | 121 | 99.2 | 105 | 79.6 | 96.9
CCOC(=O)N1c2ccc(C(F)(F)F)cc2[C@@H](N(Cc2cc(C(F)(F)F)cc(C(F)(F)F)c2)C(=O)OC)C[C@H]1CC | 121 | 111 | 124 | 124 | 117 | 113 | 105 | 113 | 109 | 125 | 109 | 104 | 108 | 115 | 121 | 116 | 110 | 103 | 109 | 109 | 103 | 97.3 | 118 | 108 | 118 | 113 | 129 | 113 | 118 | 117 | 120 | 127 | 116
N#Cc1ccc(Oc2ccc3c(c2)COB3O)cc1 | 111 | 122 | 111 | 104 | 124 | 114 | 126 | 114 | 117 | 105 | 46.4 | 105 | 108 | 112 | 92.3 | 122 | 114 | 115 | 133 | 120 | 129 | 26.9 | 115 | 127 | 119 | 85 | 126 | 107 | 120 | 129 | 97.3 | 124 | 38.4
C[C@@H]1CN(Cc2ccc(F)cc2)[C@@H](C)CN1C(=O)c1cc2c(C(=O)C(=O)N(C)C)cn(C)c2cc1Cl | 97.6 | 99.7 | 100 | 111 | 111 | 109 | 106 | 102 | 85.6 | 98.2 | 97.2 | 84.5 | 78.1 | 85 | 87.2 | 101 | 91.1 | 96.8 | 87.4 | 97.6 | 72.3 | 57 | 115 | 104 | 110 | 107 | 119 | 108 | 108 | 109 | 82.3 | 97.2 | 75.4
Cc1nc2cc(C(=O)N3CCC4(CC3)CC(=O)c3c(cnn3C(C)C)C4)ccc2[nH]1 | 55.6 | 106 | 94.6 | 104 | 111 | 114 | 118 | 105 | 106 | 124 | 109 |  |  |  |  |  |  |  |  |  |  |  | 50 | 109 | 115 | 158 | 110 | 122 | 142 | 122 | 118 | 126 | 51.6
CC1=C(/C=C/C(C)=C/C=C/C(C)=C\C(=O)O)C(C)(C)CCC1 | 82.8 | 84.8 | 67.9 | 103 | 98.1 | 96.7 | 101 | 91.5 | 44.3 | 80.1 | 78.5 | 85 | 93.2 | 77.5 | 112 | 99.5 | 107 | 108 | 107 | 46.1 | 98.2 | 106 | 68.1 | 78.3 | 64.2 | 93.2 | 95.3 | 107 | 83.4 | 75.8 | 41.6 | 77.8 | 85.8
Cc1cc(OCCC[S+](C)(=O)[O-])cc(C)c1-c1cccc(COc2ccc3c(c2)OC[C@H]3CC(=O)O)c1 | 104 | 113 | 110 | 104 | 107 | 101 | 96.5 | 99.9 | 98.3 | 112 | 91.1 | 105 | 104 | 105 | 114 | 103 | 91.8 | 106 | 98.4 | 85.7 | 98.6 | 63.1 | 97.7 | 132 | 109 | 118 | 95.5 | 108 | 109 | 105 | 93.1 | 105 | 65
CC(=O)N[C@@H]1[C@@H](NC(N)=N)\C=C(/O[C@H]1[C@H](O)[C@H](O)CO)C(O)=O | 78.4 | 89.6 | 98.1 | 107 | 107 | 123 | 40.2 | 106 | 112 | 98.6 | 95.4 | 80.1 | 90.1 | 125 | 98.6 | 89 | 129 | 49.5 | 128 | 136 | 119 | 110 | 64.5 | 82.9 | 117 | 102 | 126 | 122 | 38.4 | 120 | 121 | 110 | 113

— the supplement of paper PMC11451515
